According to the NIST ThermoML archive (doi:10.1016/j.fluid.2015.03.009):
“And” between values parts separate entries of the source, which are not always exact repeats. Identical values can stand only once. ± gives the expanded uncertainty stated by the source.

Conditions: Liquid, Closed cell (Static) method

Row | SMILES | vapor or sublimation pressure (348.15 K) | vapor or sublimation pressure (373.15 K)
1 | CCO [ethanol] | 88.59 ± 0.36 kPa and 88.58 ± 0.36 kPa | 224.37 ± 0.48 kPa and 224.31 ± 0.48 kPa
2 | CCCCCC [hexane] | 123.12 ± 0.38 kPa and 123.03 ± 0.38 kPa and 122.84 ± 0.38 kPa | 247.22 ± 0.55 kPa and 245.99 ± 0.55 kPa and 245.79 ± 0.55 kPa
3 | CO [methanol] | 150.71 ± 0.54 kPa and 150.69 ± 0.54 kPa and 150.67 ± 0.54 kPa | 352.64 ± 0.74 kPa and 352.62 ± 0.74 kPa and 352.7 ± 0.74 kPa
